Literature values, collected in patent US20030064108A1, “TASTE MASKED PHARMACEUTICAL COMPOSITIONS” (priority 1996, published 2003).

Conditions: 1 g every 6 hours, repeated administration

mean maximum concentration: about 12 mg/L
mean trough plasma concentration (immediately pre-dose): 3 mg/L
SMILES: CC(=O)Nc1ccc(O)cc1 [paracetamol]
